This is an account of results in PubChem BioAssay (NCI).

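Test compounds were applied to cells in 96-well plates for 48 hours at 5 doses. The concentration for 50% growth inhibition is given as GI50. TGI: concentration producing complete growth inhibition.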

Common to all, as to experiment: NCI anticancer screen, dose series, 48 h
Assay [1] relates to OVCAR-5 ovarian.
Assay [2] deals with SK-MEL-2 melanoma.
For assay [3], the system named is SF-268 CNS.
The test system of assay [4] is LOX IMVI melanoma.
Assay [5] has as its system RPMI-8226 leukemia.
Assay [6] deals with UACC-62 melanoma.
The test system of assay [7] is HCT-15 colon.
The test system of assay [8] is SK-MEL-28 melanoma.
Assay [9] relates to HOP-62 NSCLC.
The test system of assay [10] is MALME-3M melanoma.

As to `CC(C)(C)c1ccc(OCCOc2ccc(C(C)(C)C)cc2NC=O)c(NC=O)c1`, the TGI was determined as 75.5 µM in assay [1]; 36.6 µM in [2]; 65.8 µM in [3]; 19.2 µM in [4]; 13.6 µM in assay [5]; 28.1 µM in assay [6]. In addition, the TGI amounted to 26.4 µM in assay [7], 32.6 µM in assay [8], 28 µM in [9] and 24.8 µM in assay [10].
As for `Clc1cccc(C=NC23CC4CC(CC(C4)C2)C3)c1Cl`, the TGI in assay [1], in assay [2], in assay [3], in [4], in assay [5] and in [6] was above 10 µM each time. In addition, the TGI in [7], in assay [8], in assay [9] and in assay [10] was above 10 µM throughout.
Regarding `COC(=O)c1cc(NC(=O)Cn2c3ccccc3c3ccccc32)cn1C`, the TGI in assay [1] is above 100 µM; in [2], above 100 µM; in [3], above 100 µM; in assay [4] it was above 100 µM; in assay [5], 75 µM; in assay [6], 73.9 µM. Further, the TGI in assay [7] is above 100 µM; in [8], above 100 µM; in assay [9] it was 50.6 µM; in assay [10], above 100 µM.
Regarding `O=[N+]([O-])c1cc(-c2ccc([As](=O)(O)O)cc2)ccc1[As](=O)(O)O`, the TGI in [1], in [2], in [3], in assay [4], in [5] and in [6] was above 100 µM each time. Moreover, the TGI in assay [7], in assay [8], in assay [9] and in assay [10] was above 100 µM each time.
Take `COC(=O)[C@@]1(Cc2ccc(OC(C)=O)cc2)Cc2cc3ccccc3n2N1`: the TGI in [1] was above 100 µM; in [2], 52.2 µM; in assay [3], above 100 µM; in assay [4], above 100 µM; in assay [5] it was above 100 µM; in [6], above 100 µM. Further, the TGI in [7], in assay [8], in assay [9] and in [10] was above 100 µM in each case.
Consider `CC(=O)[C@H]1CC[C@@H]2[C@]1(C)CC=C1[C@]23C=C[C@]2(C[C@@H](O)CC[C@]12C)C(C(=O)O)C3C(=O)O` (stereo partly specified), for which the TGI in [1], in assay [2], in assay [3], in assay [4], in assay [5] and in assay [6] was above 100 µM in each case. Also, the TGI in assay [7], in assay [8], in assay [9] and in assay [10] was above 100 µM throughout.
`CC(C)C(N=C1CC2CCC1(C(=O)Nc1ccccc1O)C2(C)C)c1ccccc1` (stereo unspecified): the TGI in assay [1], in [2], in assay [3], in [4], in assay [5] and in assay [6] was above 10 µM each time. In addition, the TGI in [7], in [8], in assay [9] and in assay [10] was above 10 µM throughout.
Consider `CCOP(=O)(OCC)C(Cc1cn(S(=O)(=O)c2ccc(C)cc2)cn1)C(=O)O` (stereo unspecified), for which the TGI in assay [1], in [2], in assay [3], in assay [4], in assay [5] and in assay [6] was above 100 µM each time. Moreover, the TGI in assay [7], in [8], in assay [9] and in [10] was above 100 µM each time.
For `O=c1oc2c(Cl)cc(Cl)cc2cc1-c1cn2c(n1)sc1ccccc12`, the TGI in assay [1] was above 100 µM; in [2] it was above 100 µM; in assay [3], above 100 µM; in [4], above 100 µM; in assay [5], 89.1 µM; in assay [6], above 100 µM. The TGI in assay [7], in assay [8], in [9] and in assay [10] was above 100 µM throughout.
Turning to `O=S1(=O)OCCOS(=O)(=O)C1C1c2ccccc2-c2ccccc21`, the TGI in [1] is above 100 µM; in [2], above 100 µM; in [3] it was above 100 µM; in [4], 89 µM; in assay [5] it was above 100 µM; in assay [6], above 100 µM. Moreover, the TGI in [7], in assay [8], in assay [9] and in [10] was above 100 µM in each case.
In the case of `Cn1c(SCc2ccc([N+](=O)[O-])cc2)nnc1C12CC3CC(CC(C3)C1)C2`, the TGI in [1], in [2], in [3], in assay [4], in [5] and in assay [6] was above 10 µM each time. Further, the TGI in assay [7], in [8], in assay [9] and in assay [10] was above 10 µM throughout.
`CCc1c[n+]2c(cc1C1=CN3c4ccccc4[C@]45CCN6C/C(=C/CO)[C@H](C[C@H]64)[C@@H]([C@@H]1O)[C@H]35)-c1[nH]c3ccccc3c1CC2`: the TGI in assay [1], in [2], in assay [3], in assay [4], in assay [5] and in assay [6] was above 50 µM throughout. Besides, the TGI in assay [7], in assay [8], in assay [9] and in assay [10] was above 50 µM throughout.
On to `CC(NC(=O)C(NC(=O)C(NC(=O)C(F)(F)F)C(C)C)C(C)C)C(=O)Oc1c(Cl)c(Cl)c(Cl)c(Cl)c1Cl` (stereo unspecified), for which the TGI in assay [1], in [2], in [3], in assay [4], in [5] and in assay [6] was above 100 µM throughout. Also, the TGI in [7], in assay [8], in assay [9] and in assay [10] was above 100 µM throughout.
Take `O=C(Cn1cc(I)c(C(=O)NCC(O)CO)n1)NCC(O)CO` (stereo unspecified): the TGI in assay [2], in assay [3], in assay [4], in assay [5], in assay [6] and in assay [7] was above 100 µM throughout. Further, the TGI in assay [8], in assay [9] and in assay [10] was above 100 µM in each case.
Consider `CCOC(=O)/C(C(N)=O)=C(/O)c1cnccn1`, for which the TGI in [1], in assay [2], in assay [3], in assay [4], in assay [5] and in assay [6] was above 100 µM each time. Also, the TGI in [7], in assay [8] and in assay [10] was above 100 µM in each case.
As to `C=c1c2ccccc2oc2nc3[nH]c(N)c(C#N)c(N)c3c(=N)c12`, the TGI was above 100 µM in assay [1]; 37.8 µM in assay [2]; 70.9 µM in assay [3]; 68.4 µM in assay [4]; above 100 µM in assay [5]; above 100 µM in [6]. Also, the TGI in assay [7] was above 100 µM; in assay [8], above 100 µM; in [9], above 100 µM; in assay [10], 78.7 µM.
In the case of `CCOC1=C2N=C(C(CC)c3ccc(F)cc3)N=C2C(=O)c2ccccc21` (stereo unspecified), the TGI in [1] is above 100 µM; in assay [2], 39.5 µM; in [3], 99.4 µM; in assay [4] it was 29.7 µM; in [5] it was above 88.5 µM; in [6], 29.7 µM. Besides, the TGI in assay [7] was above 100 µM; in assay [8], above 89.4 µM; in assay [9], above 100 µM; in assay [10], 61.8 µM.
`O=C(NC12CC3CC(CC(C3)C1)C2)n1cnc2c(Cl)ncnc21`: the TGI in assay [1] was above 100 µM; in assay [2], 80.7 µM; in assay [3], 57.4 µM; in assay [4] it was 37.9 µM; in assay [5], above 100 µM; in assay [6] it was above 100 µM. Further, the TGI in assay [7], in assay [8], in [9] and in assay [10] was above 100 µM each time.
Take `Clc1ccc(CCNCCNC2(c3cc4ccccc4s3)CCCCC2)cc1Cl`: the TGI in assay [1] amounted to 3.64 µM; in [2] it was 3.2 µM; in assay [3], 3.37 µM; in [4], 3.36 µM; in [5], 4.62 µM; in assay [6] it was 3.11 µM. In addition, the TGI in [7] came to 3.61 µM; in assay [8], 3.24 µM; in [9] it was 2.6 µM; in assay [10], 3.44 µM.
For `CCN(CC)CCNC(=O)C1COc2ccc(-c3cc(=O)c4ccccc4o3)cc2O1` (stereo unspecified), the TGI amounted to 56.7 µM in assay [1]; 38 µM in assay [2]; 55.9 µM in assay [3]; 31.7 µM in assay [4]; 55.2 µM in [5]; 31.9 µM in assay [6]. In addition, the TGI turned out to be 31.8 µM in assay [7], 33.4 µM in [8], 47 µM in assay [9] and 30.3 µM in assay [10].
As to `O=C(/C=C/c1cc2ccccc2[nH]c1=O)c1ccc(O)cc1`, the GI50 in assay [1] is 3.2 µM; in assay [2], 4.13 µM; in [3] it was 3.76 µM; in [4] it was 2.47 µM; in assay [5] it was 3.2 µM; in [6] it was 2.88 µM. Moreover, the GI50 was 2.71 µM in assay [7], 5.11 µM in assay [8], 2.62 µM in assay [9] and 10.4 µM in assay [10]. In addition, the TGI in assay [1] came to 12.8 µM; in [2], 13.6 µM; in assay [3] it was 23.3 µM; in assay [4] it was 12.7 µM; in [5], 24.8 µM; in assay [6] it was 8.73 µM. The TGI in assay [7] is 12.8 µM; in assay [8] it was 19.5 µM; in assay [9], 8.18 µM; in assay [10], 33.6 µM.
For the compound `O=C1C2Cc3ccccc3CN2C(=O)N1CN1CCCCC1` (stereo unspecified), the TGI in [1], in assay [2], in assay [3], in [4], in assay [5] and in assay [6] was above 100 µM in each case. The TGI in [7], in assay [8], in assay [9] and in [10] was above 100 µM throughout.
For `COc1c(C(=O)CC2c3c(cc4oc(C)cc(=O)c4c3OC)OC(=N)C2c2nc3ccccc3[nH]2)c(O)c(OC)c2occc12` (stereo unspecified), the TGI in [1], in assay [2], in assay [3], in assay [4], in assay [5] and in [6] was above 100 µM throughout. Also, the TGI in assay [7], in assay [8], in assay [9] and in assay [10] was above 100 µM throughout.
In the case of `C1=Nc2ccc(cc2)-c2ccc(cc2)N=Cc2ccccc2OCc2cccc(n2)COc2ccccc21`, the TGI in assay [1] was above 100 µM; in assay [2], above 76.3 µM; in [3], above 100 µM; in [4] it was above 100 µM; in assay [5] it was above 100 µM; in assay [6], above 100 µM. For the same compound, the TGI in assay [7] is above 100 µM; in assay [8], above 100 µM; in assay [9], 20.1 µM; in assay [10], above 100 µM.
Regarding `CC(C)C(C=O)C(O)(C(F)(F)F)C(F)(F)F` (stereo unspecified), the TGI in assay [1], in assay [2], in assay [4], in assay [5], in assay [6] and in assay [7] was above 100 µM each time. Besides, the TGI in assay [8] and in assay [10] was above 100 µM each time.
